Measurements taken from ChEMBL document CHEMBL1139852, “A distinctive structural twist in the aminoimidazole alkaloids from a calcareous marine sponge: isolation and characterization of leucosolenamines A and B” (J Nat Prod, 2007).

Columns and labels:
Format in all cases: cell-based
[1] = Cytotoxicity against mouse CFU-GM cells at 7.8 ug/disk
[2] = Selective cytotoxicity for mouse C38 cells over CFU-GM cells at 7.8 ug/disk; conditions: mc-38
MC-38 [3] = assay: Cytotoxicity against mouse C38 cells at 7.8 ug/disk
[4] = Cytotoxicity against mouse CFU-GM cells at 180 ug/disk
MC-38 [5] = assay: Cytotoxicity against mouse C38 cells at 180 ug/disk
[6] = Selective cytotoxicity for mouse C38 cells over CFU-GM cells at 180 ug/disk; conditions: mc-38

Row | Structure (SMILES) | inhibition zone (IZ) [1] | inhibition zone (IZ) [2] | inhibition zone (IZ) (MC-38 [3]) | Activity [4] | Activity (MC-38 [5]) | inhibition zone (IZ) [6] | inhibition zone (IZ) [4] | inhibition zone (IZ) (MC-38 [5])
1 | CO[C@@H](C(=O)N[C@H]1CCCCNC1=O)[C@H](O)[C@@H](O)[C@H](O)/C=C/C(C)C [BENGAMIDE E] | 16.5 mm | 4.5 mm | 21 mm | – | – | – | – | –
2 | Cc1cn([C@H]2C[C@H](O)[C@@H](CO)O2)c(=O)[nH]c1=O [DOXRIBTIMINE] | – | – | – | Not Active | Not Active | 0 mm | – | –
3 | Cn1c(/N=C2\NC(=N)N=C2Cc2ccc3c(c2)OCO3)c(N)c(=O)n(C)c1=O [LEUCOSOLENAMINE A] | – | – | – | – | – | 10.5 mm | 0 mm | 10.5 mm
